Data published in patent US12697326B2, “Methods of treating hepatic encephalopathy” (SALIX PHARMACEUTICALS, INC., priority 2008, dated 2026).

Test system: blood ammonia concentration in subjects with HE
Assay: Blood (venous) ammonia concentration, change from baseline, first study
Assay type: in vivo, human
Conditions: ITT, change from baseline to end of treatment
Experimental: Venous blood samples (10 mL) were collected and ammonia concentrations were obtained by methods known in the art.
Mean values and mean changes from baseline in blood ammonia concentration and critical flicker frequency values were collected. Analyses of blood ammonia concentrations and critical flicker frequency values were based upon quantitative values (not qualitative grades). Treatment differences for mean change from baseline in these parameters was estimated using a mixed effects model with fixed effects for time and baseline value.
Table 22 summarizes changes from baseline to end of treatment in venous ammonia level by treatment group in the first study.

CO[C@H]1/C=C/O[C@@]2(C)Oc3c(C)c(O)c4c(O)c(c5c(nc6cc(C)ccn65)c4c3C2=O)NC(=O)/C(C)=C\C=C\[C@H](C)[C@H](O)[C@@H](C)[C@@H](O)[C@@H](C)[C@H](OC(C)=O)[C@@H]1C [Rifaximin]
Mean (SD) change in ammonia level: −5.7 (46.77) μg/dL
